Data on 80 molecules can be found in the METLIN SMRT retention time set (Domingo-Almenara et al. 2019).

Structures are written as SMILES.

The series in a line: gradient 5% acetonitrile 3 min, to 50% in 2 min, to 85% in 15 min, held 3 min, 100 µL/min. The note with it: column: Zorbax Extend-C18 2.1 x 50 mm; eluents: water / acetonitrile, 0.1% formic acid. In outline:
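Values are retention times taken from adduct peaks that software picked and an analyst inspected. The pure standards were run as mixtures of ~100 molecules on HPLC linked to a quadrupole time-of-flight mass spectrometer, in positive and negative ionization mode. A Zorbax Extend-C18 column (2.1 × 50 mm, 1.8 μm) was used at 100 μL/min with water and acetonitrile, each including 0.1% formic acid.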
For `COc1cccc(C(=O)N2CCC3(CC2)NC(=O)c2cc(C)ccc2N3C)c1`, the RP-LC retention time worked out at 752 s.

On to `CN(C)C(=O)c1ccc2c(c1)nnn2CCNC(=O)Nc1ccc(Cl)cc1`, for which the RP-LC retention time stood at 678 s.

Consider `COc1ccc(N2CCN(C(=O)c3ccc4c(c3)CC(=O)N4C)CC2)cc1`, for which the RP-LC retention time is 801 s.

The molecule `CC(C)CCNC(=O)c1ccc2ccnc(N3CCN(c4ccc(Cl)cc4)CC3)c2c1` came in with an RP-LC retention time of 992 s.

`CCN(CC)C(=O)c1cc(=O)[nH]c2ccccc12` displayed an RP-LC retention time of 624 s.

`Cc1cc2cc(CNC(=O)C(C)Oc3ccccc3)ccc2[nH]1` (stereo not given) gave an RP-LC retention time of 792 s.

`O=C(COc1ccccc1)N1CCCCC1CCN1CCCCC1` (stereo not given): the RP-LC retention time was 635 s.

For the molecule `O=C(Cc1cccs1)N1CCCC1(CO)Cc1ccccc1` (stereo not given), the RP-LC retention time amounted to 853 s.

On to `O=C(NC1CCN(c2cc(-c3ccc(Cl)cc3)[nH]n2)C1)c1ccccc1Br` (stereo not given), for which the RP-LC retention time came to 787 s.

For the molecule `Oc1ccc2ccc3[nH]cnc3c2c1`, the RP-LC retention time came out at 625 s.

In turn, `CCCCNC(=O)c1nc(Nc2cccc(C)c2)c2ccccc2n1` registered an RP-LC retention time of 858 s.

The molecule `Cc1cc(C2CCCN2C(=O)Cc2ccc(F)cc2Cl)no1` (stereo not given) gave an RP-LC retention time of 851 s.

With `Cn1ncc2c3ccccc3n(CC(=O)NCCC3=CCCCC3)c2c1=O`, the RP-LC retention time is 904 s.

As for `CCc1nc(N2CCCC2=O)sc1C(=O)NCc1ccccc1Cl`, the RP-LC retention time was determined as 874 s.

Molecule `COc1ccc(C)cc1NC(=O)C1CCN(S(=O)(=O)c2cn(C(C)C)cn2)CC1` registered an RP-LC retention time of 810 s.

`COCCCn1cnc2c(-c3ccccc3)cn(CC(=O)NCc3ccc4c(c3)OCO4)c2c1=O` returned an RP-LC retention time of 855 s.

As for `C[C@H](CCC(=O)NCCS(=O)(=O)O)[C@H]1CC[C@H]2[C@@H]3CC[C@@H]4C[C@H](O)CC[C@]4(C)[C@H]3C[C@H](O)[C@]12C`, the RP-LC retention time was 724 s.

The molecule `COc1ccc2c(c1)CCc1sc(NC(=O)c3ccc(Cl)cc3)nc1-2` came in with an RP-LC retention time of 1160 s.

The molecule `O=C(NCc1ccccc1Cl)C(=O)NCC1CCN(C(=O)COc2ccccc2)CC1` came in with an RP-LC retention time of 566 s.

Take `CC(=O)N1c2ccc(S(=O)(=O)N3CCOCC3)cc2CC1C(=O)N1CCCCC1` (stereo not given): the RP-LC retention time is 697 s.

On to `CC(=O)NCC1CNCC12CCCCC2` (stereo not given), for which the RP-LC retention time was 509 s.

`O=C(CCc1c(-c2cccc(Cl)c2)nc2ccccn12)NCc1ccco1` showed an RP-LC retention time of 637 s.

In turn, `O=C(c1cnn2cc(Br)cnc12)N1CCCC1c1cccc(F)c1` (stereo not given) yielded an RP-LC retention time of 904 s.

For `Cc1nnc(N2CCCC(C(=O)NCCc3cccs3)C2)c2nn(-c3ccc(Cl)cc3)c(C)c12` (stereo not given), the RP-LC retention time was determined as 762 s.

Turning to `COc1cc(-n2c(=O)c3ccccc3n(Cc3ccccc3F)c2=O)cc(OC)c1OC`, the RP-LC retention time is 850 s.

`CCCN1C(=O)COc2cc(-c3noc(C(=O)NCCC(C)C)n3)ccc21`: the RP-LC retention time is 1060 s.

In the case of `CCOc1ccccc1C(=O)Nc1ccc2c(c1)Sc1ncccc1C(=O)N2CC`, the RP-LC retention time was 822 s.

`COCc1cc(=O)n(CC(=O)Nc2ccccc2F)c(N2CCOCC2)n1` showed an RP-LC retention time of 789 s.

The molecule `Cc1ccc2c(c1)N(S(C)(=O)=O)CCC(C(=O)Nc1cccc(Cl)c1C)O2` (stereo not given) yielded an RP-LC retention time of 1020 s.

The molecule `CCCn1nc(CNC(=O)COc2ccccc2)c2ccccc21` showed an RP-LC retention time of 900 s.

In the case of `Cc1cccc(Sc2nccnc2N2CCCC(C(=O)NCc3ccccc3C)C2)c1` (stereo not given), the RP-LC retention time turned out to be 1150 s.

As for `COc1ccc(NC(=O)C2CC(=O)N(c3ccc4c(c3)CCN4C(=O)C3CC3)C2)cc1` (stereo not given), the RP-LC retention time was 740 s.

Turning to `Cc1ccc(C(=O)NCCn2c(C)cnc2C2CC2)s1`, the RP-LC retention time amounted to 584 s.

In turn, `COC(=O)c1ccccc1NC(=O)Cn1nc2n(c1=O)CCCCC2` showed an RP-LC retention time of 756 s.

Regarding `COC1CCC12CCN(C(=O)c1cnn(C)c1)CC2` (stereo not given), the RP-LC retention time is 642 s.

In turn, `O=C(NCCCN1CCOCC1)C1CCCN(c2nccnc2Sc2ccccc2)C1` (stereo not given) had an RP-LC retention time of 651 s.

`Cc1cc2ncn(S(=O)(=O)N3CCCC3)c2cc1C` showed an RP-LC retention time of 837 s.

Molecule `O=C(CN1C(=O)C(C(=O)N2CCCC2)Sc2ccccc21)NCc1cccc(Br)c1` (stereo not given) had an RP-LC retention time of 972 s.

`CSc1nnc(CCc2c(C)[nH]c(=O)[nH]c2=O)o1` returned an RP-LC retention time of 549 s.

With `O=C1CC(c2noc(-c3cc(F)ccc3F)n2)CN1c1ccc(F)c(Cl)c1` (stereo not given), the RP-LC retention time stood at 1110 s.

As for `O=c1c2cc(-c3ccc(F)cc3)nn2ccn1Cc1ccccc1Cl`, the RP-LC retention time is 1120 s.

The molecule `Cc1cccn2c(Nc3ccc4c(c3)OCCO4)c(-c3ccc(N(C)C)cc3)nc12` returned an RP-LC retention time of 735 s.

For `CCN1CCn2cc(S(=O)(=O)N3CCN(c4ccccc4F)CC3)cc2C1=O`, the RP-LC retention time came to 826 s.

`C=CCNC(=O)C1CCCN(C(=O)Nc2ccc(NC(=O)Nc3ccccc3F)cc2)C1` (stereo not given) yielded an RP-LC retention time of 731 s.

`CCNC(=O)c1nc(C(=O)NCCc2ccc(Cl)cc2)cs1` gave an RP-LC retention time of 842 s.

In turn, `CC(C)(C)c1noc(-c2ccc(-n3cnc(C(=O)NC4CCCCC4)c3)nc2)n1` showed an RP-LC retention time of 1040 s.

`Cc1cc(C(=O)Nc2ccc(-c3nc4ccccc4o3)cc2)no1` displayed an RP-LC retention time of 857 s.

The molecule `CCN(c1cccc(C)c1)S(=O)(=O)c1cc(-c2[nH]ncc2C(=O)N2CCCC2)oc1C` showed an RP-LC retention time of 819 s.

The molecule `Cc1ccc(C(=O)Nc2ccccc2[N+](=O)[O-])cc1` came in with an RP-LC retention time of 967 s.

The molecule `COc1ccc(C2(C(=O)N3CCCC(c4nc(C5CCOCC5)no4)C3)CC2)cc1` (stereo not given) yielded an RP-LC retention time of 822 s.

Take `O=C1CC(c2noc(-c3cc(F)ccc3Cl)n2)CN1c1ccc(F)cc1` (stereo not given): the RP-LC retention time came to 1020 s.

For `CCc1ccc(CNC(=O)C2CCCN(c3nn4c(=O)c5c(nc4s3)CCCC5)C2)cc1` (stereo not given), the RP-LC retention time was 983 s.

For the molecule `CCc1nc(-c2ccc(S(=O)(=O)N3CCC(C(=O)NCc4ccc5c(c4)OCO5)CC3)cc2)no1`, the RP-LC retention time was 929 s.

`N#Cc1ccc(C(=O)N2CCCC(COc3ccc(C(=O)NC4CC4)cc3)C2)cc1` (stereo not given) registered an RP-LC retention time of 757 s.

Turning to `COc1ccc(Br)cc1Cn1nnc(C(=O)NCc2ccco2)c1N`, the RP-LC retention time was 791 s.

Molecule `COc1ccc(Cl)cc1N1C=C(C#N)S(=O)(=O)c2ccccc21` returned an RP-LC retention time of 918 s.

As for `CS(=O)(=O)N(Cc1ccncc1)C1CN(C(=O)c2ccc3ncccc3c2)C1`, the RP-LC retention time stood at 698 s.

`Cc1ccc(NC(=O)C2CC(=O)N(c3cccc(NC(=O)C4CCC4)c3)C2)cc1Cl` (stereo not given): the RP-LC retention time worked out at 914 s.

In turn, `Cc1ccccc1Cn1cccc1CNC(=O)Nc1ccc2c(c1)OCO2` gave an RP-LC retention time of 931 s.

On to `CCc1cc(=O)n(CC(=O)NCc2ccc3c(c2)OCO3)c(-c2ccccc2)n1`, for which the RP-LC retention time was determined as 1000 s.

Take `CCC(CO)Nc1nc(NCc2ccccc2)c2ncn(C(C)C)c2n1` (stereo not given): the RP-LC retention time came out at 630 s.

In the case of `CN1C[C@@H](CO)C=C2c3cccc4[nH]cc(c34)C[C@@H]21`, the RP-LC retention time amounted to 607 s.

`CCCNc1cc(N2CCC(CCC(=O)N3CCC(C(=O)OCC)CC3)CC2)ncn1` displayed an RP-LC retention time of 664 s.

Turning to `Cc1ccc(-c2nc3ncccn3c2Nc2ccc(Cl)cc2)cc1`, the RP-LC retention time was found to be 827 s.

For the molecule `CCC(C(=O)NCCN1CCOCC1)n1c2ccccc2c2cnn(C)c(=O)c21` (stereo not given), the RP-LC retention time is 617 s.

`Cc1ccc(NS(=O)(=O)c2ccc(-c3c(C)noc3C)cc2)c(Br)c1` gave an RP-LC retention time of 1020 s.

For the molecule `CCOC(=O)c1c(C)[nH]c(C(=O)N2CCC(CC(=O)N3CCOCC3)CC2)c1C`, the RP-LC retention time was found to be 675 s.

As for `CCN1CCN(CCNC(=O)c2cc3n(n2)CCCN(Cc2cccc(C)c2)C3=O)CC1`, the RP-LC retention time amounted to 602 s.

As to `CCOc1ccc(S(=O)(=O)N2CCN(c3cnn4c(C)nnc4c3)CC2)cc1`, the RP-LC retention time is 714 s.

Molecule `Cc1ccc(-n2ccc(=O)c(-c3nc(-c4ccc5c(c4)OCO5)no3)n2)cc1` registered an RP-LC retention time of 893 s.

Molecule `Cc1cccc(-n2c(=O)c3sccc3n(Cc3nc(-c4ccc(C)c(C)c4)no3)c2=O)c1` gave an RP-LC retention time of 1150 s.

`CCOC(=O)c1c(S(=O)(=O)N2CCC(C(=O)NCc3ccc(C)o3)CC2)c(C)n(C)c1C`: the RP-LC retention time was 764 s.

As to `CC(C)Cn1cc(CCNC(=O)c2cncc(Br)c2)c2cccnc21`, the RP-LC retention time worked out at 796 s.

Take `O=C(c1nnc(-c2ccc(S(=O)(=O)N3CCCC3)cc2)o1)N1CCC(Cc2ccccc2)CC1`: the RP-LC retention time turned out to be 1130 s.

Regarding `O=C1CC(c2nc(-c3cccc(C(F)(F)F)c3)no2)CN1c1ccc2c(c1)OCO2` (stereo not given), the RP-LC retention time worked out at 1020 s.

Molecule `O=C(CC(=O)c1ccccc1)Nc1ccc2c(c1)OCCO2` showed an RP-LC retention time of 769 s.

Turning to `COc1ccc(N2CC(C(=O)N3CCC(C(=O)N4CCC(C(N)=O)CC4)CC3)CC2=O)cc1` (stereo not given), the RP-LC retention time amounted to 600 s.

Molecule `COc1ccc(S(=O)(=O)N2CC3CN(C(=O)c4cccc(F)c4)CC(C2)O3)cc1` showed an RP-LC retention time of 794 s.

Take `COc1ccc(NC(=O)N2CCC(c3nc(C(=O)N4CCOCC4)c(C)o3)CC2)cc1`: the RP-LC retention time stood at 660 s.

`COc1ccc(NC(=O)C2CCN(S(=O)(=O)c3cc4c(cc3C)NC(=O)CO4)CC2)cc1` showed an RP-LC retention time of 754 s.
